Data from patent publication US20200055839A1 (priority 2017, published 2020).
pEC50: −log10 of the molar value.

Test system: NL-RLuc virus
Experiment: Inhibition of HIV replication (NL-RLuc virus, luciferase readout in MT-2 cells)
Format: cell-based
Conditions: Human immunodeficiency virus 1, MT2, 120 h, MT-2 cells infected with NL-RLuc virus, 5 days of incubation, 10% FBS, at least 2 experiments
Method in brief: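 MT-2 cells infected with NL4-3-derived virus carrying Renilla luciferase in place of part of nef, grown 5 days with serial compound dilutions in RPMI 1640/10% FBS. Virus growth read as luciferase expression. EC50 from median effect equation, at least 2 experiments.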

Question: Cc1ncc(-c2ccc(OCc3ccccc3Cl)cn2)c(N2CCC(C)(C)CC2)c1[C@H](OC(C)(C)C)C(=O)O [Example 336, (2S)-2-(tert-butoxy)-2-{5-[(2-chlorophenyl)methoxy]-4′-(4,4-dimethylpiperidin-1-yl)-6′-methyl-[2,3′-bipyridine]-5′-yl}acetic acid] was tested. Which pEC50 did it give?
Answer: The pEC50 was 8.70.

Question: With Cc1ncc(-c2ccncc2)c(N2CCC(C)(C)CC2)c1[C@H](OC(C)(C)C)C(=O)O [Example 141, (2S)-2-(tert-Butoxy)-2-[4-(4,4-dimethylpiperidin-1-yl)-6-methyl-[3, 4′-bipyridine]-5-yl]acetic acid] as the compound, how does the pEC50 read?
Answer: Its pEC50 is 8.10.

Question: How did the pEC50 turn out when Cc1nc(N)c([C@H](OC(C)(C)C)C(=O)O)c(N2CCC(C)(C)CC2)c1-c1ccc(OCCc2ccc(F)cc2)cc1 [Example 2, (S)-2-(2-Amino-4-(4,4-dimethylpiperidin-1-yl)-5-(4-(4-fluorophenethoxy)phenyl)-6-methylpyridin-3-yl)-2-(tert-butoxy)acetic acid] was run?
Answer: The pEC50 was 8.30.

Question: How did the pEC50 turn out when Cc1nc(NCCn2cccn2)c(-c2ccc(OCCc3ccc(F)cc3)cc2)c(N2CCC(C)(C)CC2)c1[C@H](OC(C)(C)C)C(=O)O [Example 33, (S)-2-(6-((2-(1H-Pyrazol-1-yl)ethyl)amino)-4-(4,4-dimethylpiperidin-1-yl)-5-(4-(4-fluorophenethoxy)phenyl)-2-methylpyridin-3-yl)-2-(tert-butoxy)acetic acid] was run?
Answer: The pEC50 was 8.70.

Question: Cc1nc(NCCc2c[nH]cn2)c(-c2ccc(OCCc3ccc(F)cc3)cc2)c(N2CCC(C)(C)CC2)c1[C@H](OC(C)(C)C)C(=O)O [Example 32, (S)-2-(6-((2-(H-Imidazol-4-yl)ethyl)amino)-4-(4,4-dimethylpiperidin-1-yl)-5-(4-(4-fluorophenethoxy)phenyl)-2-methylpyridin-3-yl)-2-(tert-butoxy)acetic acid] was tested. Which pEC50 did it give?
Answer: The pEC50 was 8.30.

Question: How did the pEC50 turn out when Cc1ncc(-c2ccc(OCCc3ccc(F)cc3)c(Cl)c2)c(N2CCC(C)(C)CC2)c1[C@H](OC(C)(C)C)C(=O)O [Example 235, (S)-2-(tert-Butoxy)-2-(5-(3-chloro-4-(4-fluorophenethoxy)phenyl)-4-(4,4-dimethylpiperidin-1-yl)-2-methylpyridin-3-yl)acetic acid] was run?
Answer: The pEC50 was 8.70.

Question: CCCCOc1ccc(-c2cnc(CC)c([C@H](OC(C)(C)C)C(=O)O)c2N2CCC(C)(C)CC2)nc1 [Example 279, (S)-2-(tert-Butoxy)-2-(5-butoxy-4′-(4,4-dimethylpiperidin-1-yl)-6′-ethyl-[2, 3′-bipyridin]-5′-yl)acetic acid] was tested. Which pEC50 did it give?
Answer: Its pEC50 is 8.22.

Question: COc1c(F)cc(-c2c(CN3CCC4(CCC4)CC3)nc(C)c([C@H](OC(C)(C)C)C(=O)O)c2N2CCC(C)(C)CC2)cc1F [Example 194, (2S)-2-[6-({7-Azaspiro[3.5]nonan-7-yl}methyl)-5-(3,5-difluoro-4-methoxyphenyl)-4-(4,4-dimethylpiperidin-1-yl)-2-methylpyridin-3-yl]-2-(tert-butoxy)acetic acid] was tested. Which pEC50 did it give?
Answer: Its pEC50 is 9.22.

Question: With Cc1nc(-c2cncnc2)c(-c2ccc(OCCc3ccc(F)cc3)cc2)c(N2CCC(C)(C)CC2)c1[C@H](OC(C)(C)C)C(=O)O [Example 39, (S)-2-(tert-Butoxy)-2-(4-(4,4-dimethylpiperidin-1-yl)-5-(4-(4-fluorophenethoxy)phenyl)-2-methyl-6-(pyrimidin-5-yl)pyridin-3-yl)acetic acid] as the compound, how does the pEC50 read?
Answer: The pEC50 was 8.52.

Question: How did the pEC50 turn out when Cc1nc(CNC(=O)OC(C)(C)C)c(-c2ccc(OCCc3ccc(F)cc3)cc2)c(N2CCC(C)(C)CC2)c1[C@H](OC(C)(C)C)C(=O)O [Example 23, (S)-2-(tert-Butoxy)-2-(6-(((tert-butoxycarbonyl)amino)methyl)-4-(4,4-dimethylpiperidin-1-yl)-5-(4-(4-fluorophenethoxy)phenyl)-2-methylpyridin-3-yl)acetic acid] was run?
Answer: Its pEC50 is 8.70.

Question: COc1cccc(COc2ccc(-c3cnc(C)c([C@H](OC(C)(C)C)C(=O)O)c3N3CCC(C)(C)CC3)nc2)c1 [Example 340, (2S)-2-(tert-butoxy)-2-[4′-(4,4-dimethylpiperidin-1-yl)-5-[(3-methoxyphenyl)methoxy]-6′-methyl-[2,3′-bipyridine]-5′-yl]acetic acid] was tested. Which pEC50 did it give?
Answer: Its pEC50 is 8.70.

Question: How did the pEC50 turn out when Cc1nc(OCCO)c(-c2ccc(OCCc3ccc(F)cc3)cc2)c(N2CCC(C)(C)CC2)c1[C@H](OC(C)(C)C)C(=O)O [Example 103, (S)-2-(tert-Butoxy)-2-(4-(4,4-dimethylpiperidin-1-yl)-5-(4-(4-fluorophenethoxy)phenyl)-6-(2-hydroxyethoxy)-2-methylpyridin-3-yl)acetic acid] was run?
Answer: The pEC50 was 8.70.

Question: How did the pEC50 turn out when Cc1nn(C)cc1-c1nc(C)c([C@H](OC(C)(C)C)C(=O)O)c(N2CCC(C)(C)CC2)c1-c1ccc(OCCc2ccc(F)cc2)cc1 [Example 37, (S)-2-(tert-Butoxy)-2-(6-(1,3-dimethyl-1H-pyrazol-4-yl)-4-(4,4-dimethylpiperidin-1-yl)-5-(4-(4-fluorophenethoxy)phenyl)-2-methylpyridin-3-yl)acetic acid] was run?
Answer: Its pEC50 is 8.70.

Question: How did the pEC50 turn out when COc1ccccc1CCOc1ccc(-c2cnc(C)c([C@H](OC(C)(C)C)C(=O)O)c2N2CCC(C)(C)CC2)nc1 [Example 296, (2S)-2-(tert-butoxy)-2-[4′-(4,4-dimethylpiperidin-1-yl)-5-[2-(2-methoxyphenyl)ethoxy]-6′-methyl-[2,3′-bipyridine]-5′-yl]acetic acid] was run?
Answer: The pEC50 was 8.70.

Question: With Cc1ncc(-c2ccc(OCCc3ccc(F)cc3)c(C(F)(F)F)c2)c(N2CCC(C)(C)CC2)c1[C@H](OC(C)(C)C)C(=O)O [Example 241, (S)-2-(tert-Butoxy)-2-(4-(4,4-dimethylpiperidin-1-yl)-5-(4-(4-fluorophenethoxy)-3-(trifluoromethyl)phenyl)-2-methylpyridin-3-yl)acetic acid] as the compound, how does the pEC50 read?
Answer: The pEC50 was 8.15.

Question: How did the pEC50 turn out when Cc1ncc(-c2ccc(OCCC(C)C)nc2)c(N2CCC(C)(C)CC2)c1[C@H](OC(C)(C)C)C(=O)O [Example 427, (S)-2-tert-Butoxy-2-(4-(4,4-dimethylpiperidin-1-yl)-6′-(isopentyloxy)-6-methyl-3, 3′-bipyridin-5-yl)acetic acid] was run?
Answer: The pEC50 was 8.70.

Question: Cc1ccncc1Nc1nc(C)c([C@H](OC(C)(C)C)C(=O)O)c(N2CCC(C)(C)CC2)c1-c1ccc(OCCc2ccc(F)cc2)cc1 [Example 86, (S)-2-(tert-Butoxy)-2-(4-(4,4-dimethylpiperidin-1-yl)-5-(4-(4-fluorophenethoxy)phenyl)-2-methyl-6-((4-methylpyridin-3-yl)amino)pyridin-3-yl)acetic acid] was tested. Which pEC50 did it give?
Answer: The pEC50 was 8.52.

Question: With CC1(C)CCN(c2c(-c3ccc(OCCc4ccc(F)cc4)cc3)cnc(Cl)c2[C@H](OC(C)(C)C)C(=O)O)CC1 [Example 211, (S)-2-(tert-Butoxy)-2-(2-chloro-4-(4,4-dimethylpiperidin-1-yl)-5-(4-(4-fluorophenethoxy)phenyl)pyridin-3-yl)acetic acid] as the compound, how does the pEC50 read?
Answer: The pEC50 was 8.52.

Question: CCc1ncc(-c2ccc(OCC(C)C)cn2)c(N2CCC(C)(C)CC2)c1[C@H](OC(C)(C)C)C(=O)O [Example 277, (S)-2-(tert-Butoxy)-2-(4′-(4,4-dimethylpiperidin-1-yl)-6′-ethyl-5-isobutoxy-[2, 3′-bipyridin]-5′-yl)acetic acid] was tested. Which pEC50 did it give?
Answer: The pEC50 was 8.22.

Question: Cc1ncc(-c2cc(C(F)(F)F)c(OCCc3ccc(F)cc3)cn2)c(N2CCC(C)(C)CC2)c1[C@H](OC(C)(C)C)C(=O)O [Example 244, (S)-2-(tert-Butoxy)-2-(4′-(4,4-dimethylpiperidin-1-yl)-5-(4-fluorophenethoxy)-6′-methyl-4-(trifluoromethyl)-[2, 3′-bipyridin]-5′-yl)acetic acid] was tested. Which pEC50 did it give?
Answer: Its pEC50 is 8.52.

Question: How did the pEC50 turn out when Cc1ncc(-c2ccc(OC(C)CC(C)C)nc2)c(N2CCC(C)(C)CC2)c1[C@H](OC(C)(C)C)C(=O)O (stereo partly drawn) [Example 439, (2S)-2-tert-Butoxy-2-(4-(4,4-dimethylpiperidin-1-yl)-6-methyl-6′-(4-methylpentan-2-yloxy)-3, 3′-bipyridin-5-yl)acetic acid] was run?
Answer: The pEC50 was 7.82.

Question: Cc1nc(C(C)O)c(-c2ccc(OCCc3ccc(F)cc3)c(F)c2)c(N2CCC(C)(C)CC2)c1[C@H](OC(C)(C)C)C(=O)O (single isomer, unassigned) [Example 236] was tested. Which pEC50 did it give?
Answer: The pEC50 was 8.70.

Question: How did the pEC50 turn out when Cc1ncc(-c2ccc(F)nc2OCCc2ccc(F)cc2)c(N2CCC(C)(C)CC2)c1[C@H](OC(C)(C)C)C(=O)O (single isomer, unassigned) [Example 262] was run?
Answer: Its pEC50 is 5.95.

Question: COc1ccccc1CCOc1ncc(-c2cnc(C)c([C@H](OC(C)(C)C)C(=O)O)c2N2CCC(C)(C)CC2)cc1F [Example 382, (2S)-2-(tert-butoxy)-2-[4-(4,4-dimethylpiperidin-1-yl)-5′-fluoro-6′-[2-(2-methoxyphenyl)ethoxy]-6-methyl-[3,3′-bipyridine]-5-yl]acetic acid] was tested. Which pEC50 did it give?
Answer: Its pEC50 is 8.30.

Question: How did the pEC50 turn out when Cc1nc(-c2cnc(C)c([C@H](OC(C)(C)C)C(=O)O)c2N2CCC(C)(C)CC2)ncc1OCCc1ccc(F)cc1 [Example 245, (S)-2-(tert-Butoxy)-2-(4-(4,4-dimethylpiperidin-1-yl)-5-(5-(4-fluorophenethoxy)-4-methylpyrimidin-2-yl)-2-methylpyridin-3-yl)acetic acid] was run?
Answer: The pEC50 was 8.70.

Question: CCOc1ccc(-c2cnc(C)c([C@H](OC(C)(C)C)C(=O)O)c2N2CCC(C)(C)CC2)c(F)c1F [Example 175, (2S)-2-(tert-Butoxy)-2-[4-(4,4-dimethylpiperidin-1-yl)-5-(4-ethoxy-2,3-difluorophenyl)-2-methylpyridin-3-yl]acetic acid] was tested. Which pEC50 did it give?
Answer: Its pEC50 is 8.22.

Question: CNc1nc(C)c([C@H](OC(C)(C)C)C(=O)O)c(N2CCC(C)(C)CC2)c1-c1ccc(OCCc2ccc(F)cc2)c(F)c1 [Example 108, (S)-2-(tert-Butoxy)-2-(4-(4,4-dimethylpiperidin-1-yl)-5-(3-fluoro-4-(4-fluorophenethoxy)phenyl)-2-methyl-6-(methylamino)pyridin-3-yl)acetic acid] was tested. Which pEC50 did it give?
Answer: The pEC50 was 8.52.

Question: How did the pEC50 turn out when Cc1ncc(-c2ccc(OCCc3ccccc3Cl)cn2)c(N2CCC(C)(C)CC2)c1[C@H](OC(C)(C)C)C(=O)O [Example 302, (2S)-2-(tert-butoxy)-2-{5-[2-(2-chlorophenyl)ethoxy]-4′-(4,4-dimethylpiperidin-1-yl)-6′-methyl-[2,3′-bipyridine]-5′-yl}acetic acid] was run?
Answer: The pEC50 was 9.22.
